From US8604218B2, “Cytoskeletal active rho kinase inhibitor compounds, composition and use” (Inspire Pharmaceuticals, Inc., priority 2006, dated 2013)

Target: ROCK2 (Homo sapiens (Human), UniProt O75116)
Assay: Rho Kinase Inhibition Assay (IMAP fluorescence polarization)
Format: biochemical
Settings: isolated enzyme, 10 μM ATP, 60 minutes at room temperature
Method: Following the preincubation, 10 μM ATP was added to initiate the reaction. After 60 minutes at room temperature, Molecular Devices IMAP™ binding solution was added to bind phosphorylated substrate. After 30 minutes of incubation in the presence of the IMAP™ beads the fluorescence polarization was read and the ratio was reported as mP. IC50 results were calculated using the Prism software from Graphpad.
See Tian et al., Arch. Ophthalmol. […] Ophthalmol. Vis. […] Ophthalmol. […] Cytoskel. […] Ophthalmol. Vis. […] Ophthalmol. Vis.

ROCK2, sequence (O75116 11-552): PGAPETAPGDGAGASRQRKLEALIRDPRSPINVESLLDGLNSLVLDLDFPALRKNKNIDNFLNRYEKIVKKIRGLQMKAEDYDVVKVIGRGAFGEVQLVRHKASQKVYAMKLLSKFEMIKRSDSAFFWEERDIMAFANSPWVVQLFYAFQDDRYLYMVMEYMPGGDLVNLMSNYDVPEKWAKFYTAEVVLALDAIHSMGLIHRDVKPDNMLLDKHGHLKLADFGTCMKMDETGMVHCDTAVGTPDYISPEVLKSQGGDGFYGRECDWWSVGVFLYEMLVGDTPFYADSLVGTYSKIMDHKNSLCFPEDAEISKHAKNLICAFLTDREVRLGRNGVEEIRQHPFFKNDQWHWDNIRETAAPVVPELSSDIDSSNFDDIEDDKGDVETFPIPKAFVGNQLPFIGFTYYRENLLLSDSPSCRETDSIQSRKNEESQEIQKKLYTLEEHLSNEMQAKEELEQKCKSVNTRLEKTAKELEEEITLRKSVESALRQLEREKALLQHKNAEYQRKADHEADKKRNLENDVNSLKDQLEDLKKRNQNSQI

Structure (SMILES) | IC50
CC(=O)Nc1ccc(CN2CCCC(Nc3ccc4[nH]ncc4c3)C2)cc1 (centres unmarked) [Compound 1.003, N-(4-((3-(1H-indazol-5-ylamino)piperidin-1-yl)methyl)phenyl)acetamide] | 6190 nM
CN(C)CCCOc1ccc(CN2CCC(Nc3ccc4[nH]ncc4c3)C2)cc1 (centres unmarked) [Compound 1.007, N-(1-(4-(3-(dimethylamino)propoxy)benzyl)pyrrolidin-3-yl)-1H-indazol-5-amine] | 3440 nM
c1ccc(-c2ccc(CN3CCCC(Nc4ccc5[nH]ncc5c4)C3)cc2)cc1 (centres unmarked) [Compound 1.009, N-(1-(biphenyl-4-ylmethyl)piperidin-3-yl)-1H-indazol-5-amine] | 1610 nM
c1cn(-c2ccc(CN3CCCC(Nc4ccc5[nH]ncc5c4)C3)cc2)cn1 (centres unmarked) [Compound 1.010] | 2800 nM
c1cc(N2CCCC2)ccc1CN1CCCC(Nc2ccc3[nH]ncc3c2)C1 (centres unmarked) [Compound 1.011, N-(1-(4-(pyrrolidin-1-yl)benzyl)piperidin-3-yl)-1H-indazol-5-amine] | 12200 nM
c1cc(N2CCOCC2)ccc1CN1CCCC(Nc2ccc3[nH]ncc3c2)C1 (centres unmarked) [Compound 1.012, N-(1-(4-morpholinobenzyl)piperidin-3-yl)-1H-indazol-5-amine] | 12200 nM
CC(C)Cc1ccc(CN2CCCC(Nc3ccc4[nH]ncc4c3)C2)cc1 (centres unmarked) [Compound 1.013, N-(1-(4-isobutylbenzyl)piperidin-3-yl)-1H-indazol-5-amine] | 3660 nM
CCCCc1ccc(CN2CCCC(Nc3ccc4[nH]ncc4c3)C2)cc1 (centres unmarked) [Compound 1.014, N-(1-(4-butylbenzyl)piperidin-3-yl)-1H-indazol-5-amine] | 4690 nM
CC(C)Oc1ccc(CN2CCCC(Nc3ccc4[nH]ncc4c3)C2)cc1 (centres unmarked) [Compound 1.015, N-(1-(4-isopropoxybenzyl)piperidin-3-yl)-1H-indazol-5-amine] | 9980 nM
OCCOc1ccc(CN2CCCC(Nc3ccc4[nH]ncc4c3)C2)cc1 (centres unmarked) [Compound 1.018, 2-(4-((3-(1H-indazol-5-ylamino)piperidin-1-yl)methyl)phenoxy)ethanol] | 2410 nM
CN(C)Cc1ccc(CN2CCCC(Nc3ccc4[nH]ncc4c3)C2)cc1 (centres unmarked) [Compound 1.019, N-(1-(4-((dimethylamino)methyl)benzyl)piperidin-3-yl)-1H-indazol-5-amine] | 13400 nM
FC(F)(F)Oc1ccc(CN2CCCC(Nc3ccc4[nH]ncc4c3)C2)cc1 (centres unmarked) [Compound 1.022, N-(1-(4-(trifluoromethoxy)benzyl)piperidin-3-yl)-1H-indazol-5-amine] | 1610 nM
c1cc(SC2CC2)ccc1CN1CCCC(Nc2ccc3[nH]ncc3c2)C1 (centres unmarked) [Compound 1.026, N-(1-(4-(cyclopropylthio)benzyl)piperidin-3-yl)-1H-indazol-5-amine] | 2130 nM
CC(C)(C)OC(=O)NCc1ccc(CN2CCCC(Nc3ccc4[nH]ncc4c3)C2)cc1 (centres unmarked) [Compound 1.027, tert-butyl 4-((3-(1H-indazol-5-ylamino)piperidin-1-yl)methyl)benzylcarbamate] | 6600 nM
CS(=O)(=O)Cc1ccc(CN2CCCC(Nc3ccc4[nH]ncc4c3)C2)cc1 (centres unmarked) [Compound 1.029, N-(1-(4-(methylsulfonylmethyl)benzyl)piperidin-3-yl)-1H-indazol-5-amine] | 11700 nM
c1ccc(CN2CCCC(Nc3ccc4[nH]ncc4c3)CC2)cc1 (centres unmarked) [Compound 1.031, N-(1-benzylazepan-4-yl)-1H-indazol-5-amine] | 1750 nM
CN(C)c1ccc(CN2CCCC(Nc3ccc4[nH]ncc4c3)C2)cc1 (centres unmarked) [Compound 1.032, N-(1-(4-(dimethylamino)benzyl)piperidin-3-yl)-1H-indazol-5-amine] | 1940 nM
N#Cc1ccc(CN2CCCC(Nc3ccc4[nH]ncc4c3)C2)cc1 (centres unmarked) [Compound 1.038, 4-((3-(1H-indazol-5-ylamino)piperidin-1-yl)methyl)benzonitrile] | 2760 nM
CSc1cccc(CN2CCCC(Nc3ccc4[nH]ncc4c3)C2)c1 (centres unmarked) [Compound 1.040, N-(1-(3-(methylthio)benzyl)piperidin-3-yl)-1H-indazol-5-amine] | 144 nM
OCC#Cc1ccc(CN2CCCC(Nc3ccc4[nH]ncc4c3)C2)cc1 (centres unmarked) [Compound 1.042, 3-(4-((3-(1H-indazol-5-ylamino)piperidin-1-yl)methyl)phenyl)prop-2-yn-1-ol] | 4400 nM
OCCC#Cc1ccc(CN2CCCC(Nc3ccc4[nH]ncc4c3)C2)cc1 (centres unmarked) [Compound 1.043, 4-(4-((3-(1H-indazol-5-ylamino)piperidin-1-yl)methyl)phenyl)but-3-yn-1-ol] | 11700 nM
C(#CC1CC1)c1ccc(CN2CCCC(Nc3ccc4[nH]ncc4c3)C2)cc1 (centres unmarked) [Compound 1.044, N-(1-(4-(cyclopropylethynyl)benzyl)piperidin-3-yl)-1H-indazol-5-amine] | 6510 nM
Nc1n[nH]c2ccc(NC3CCCN(Cc4ccccc4)C3)cc12 (centres unmarked) [Compound 1.050, N5-(1-benzylpiperidin-3-yl)-1H-indazole-3,5-diamine] | 1040 nM

Continued, values first:

IC50 | Structure (SMILES)
358 nM | CS(=O)(=O)c1ccc(CN2CCCC(Nc3ccc4[nH]ncc4c3)C2)cc1 (centres unmarked) [Compound 1.001, N-(1-(4-(methylsulfonyl)benzyl)piperidin-3-yl)-1H-indazol-5-amine]
254 nM | CS(=O)(=O)c1ccc(CN2CCC(Nc3ccc4[nH]ncc4c3)C2)cc1 (centres unmarked) [Compound 1.004, N-(1-(4-(methylsulfonyl)benzyl)pyrrolidin-3-yl)-1H-indazol-5-amine]
65.8 nM | CSc1ccc(CN2CCCC(Nc3ccc4[nH]ncc4c3)C2)cc1 (centres unmarked) [Compound 1.008, N-(1-(4-(methylthio)benzyl)piperidin-3-yl)-1H-indazol-5-amine]
135 nM | Cc1cccc(CN2CCCC(Nc3ccc4[nH]ncc4c3)C2)c1C (centres unmarked) [Compound 1.016, N-(1-(2,3-dimethylbenzyl)piperidin-3-yl)-1H-indazol-5-amine]
215 nM | CCSc1ccc(CN2CCCC(Nc3ccc4[nH]ncc4c3)C2)cc1 (centres unmarked) [Compound 1.017, N-(1-(4-(ethylthio)benzyl)piperidin-3-yl)-1H-indazol-5-amine]
251 nM | c1cc(C2CC2)ccc1CN1CCCC(Nc2ccc3[nH]ncc3c2)C1 (centres unmarked) [Compound 1.020, N-(1-(4-cyclopropylbenzyl)piperidin-3-yl)-1H-indazol-5-amine]
553 nM | c1cc(CN2CCCC(Nc3ccc4[nH]ncc4c3)C2)cc(C2CC2)c1 (centres unmarked) [Compound 1.021, N-(1-(3-cyclopropylbenzyl)piperidin-3-yl)-1H-indazol-5-amine]
334 nM | CC(C)c1ccc(CN2CCCC(Nc3ccc4[nH]ncc4c3)C2)cc1 (centres unmarked) [Compound 1.023, N-(1-(4-isopropylbenzyl)piperidin-3-yl)-1H-indazol-5-amine]
107 nM | Cc1ccc(CN2CCCC(Nc3ccc4[nH]ncc4c3)C2)c(C)c1 (centres unmarked) [Compound 1.024, N-(1-(2,4-dimethylbenzyl)piperidin-3-yl)-1H-indazol-5-amine]
588 nM | OCc1ccc(CN2CCCC(Nc3ccc4[nH]ncc4c3)C2)cc1 (centres unmarked) [Compound 1.025, (4-((3-(1H-indazol-5-ylamino)piperidin-1-yl)methyl)phenyl)methanol]
86.9 nM | CCc1ccc(CN2CCCC(Nc3ccc4[nH]ncc4c3)C2)cc1 (centres unmarked) [Compound 1.033, N-(1-(4-ethylbenzyl)piperidin-3-yl)-1H-indazol-5-amine]
69.1 nM | C#Cc1ccc(CN2CCCC(Nc3ccc4[nH]ncc4c3)C2)cc1 (centres unmarked) [Compound 1.034, N-(1-(4-ethynylbenzyl)piperidin-3-yl)-1H-indazol-5-amine]
208 nM | NCc1ccc(CN2CCCC(Nc3ccc4[nH]ncc4c3)C2)cc1 (centres unmarked) [Compound 1.035, N-(1-(4-(aminomethyl)benzyl)piperidin-3-yl)-1H-indazol-5-amine]
1020 nM | CC(=O)c1ccc(CN2CCCC(Nc3ccc4[nH]ncc4c3)C2)cc1 (centres unmarked) [Compound 1.036, 1-(4-((3-(1H-indazol-5-ylamino)piperidin-1-yl)methyl)phenyl)ethanone]
69.5 nM | C=Cc1ccc(CN2CCCC(Nc3ccc4[nH]ncc4c3)C2)cc1 (centres unmarked) [Compound 1.037, N-(1-(4-vinylbenzyl)piperidin-3-yl)-1H-indazol-5-amine]
328 nM | OCCOc1cccc(CN2CCCC(Nc3ccc4[nH]ncc4c3)C2)c1 (centres unmarked) [Compound 1.039, 2-(3-((3-(1H-indazol-5-ylamino)piperidin-1-yl)methyl)phenoxy)ethanol]
137 nM | CS(=O)(=O)Cc1cccc(CN2CCCC(Nc3ccc4[nH]ncc4c3)C2)c1 (centres unmarked) [Compound 1.041, N-(1-(3-(methylsulfonylmethyl)benzyl)piperidin-3-yl)-1H-indazol-5-amine]
586 nM | Brc1cccc(CN2CCCC(Nc3ccc4[nH]ncc4c3)C2)c1 (centres unmarked) [Compound 1.045, N-(1-(3-bromobenzyl)piperidin-3-yl)-1H-indazol-5-amine]
156 nM | Oc1cccc(CN2CCCC(Nc3ccc4[nH]ncc4c3)C2)c1 (centres unmarked) [Compound 1.046, 3-((3-(1H-indazol-5-ylamino)piperidin-1-yl)methyl)phenol]
57 nM | C#Cc1cccc(CN2CCCC(Nc3ccc4[nH]ncc4c3)C2)c1 (centres unmarked) [Compound 1.047, N-(1-(3-ethynylbenzyl)piperidin-3-yl)-1H-indazol-5-amine]
721 nM | CS(=O)(=O)c1cccc(CN2CCCC(Nc3ccc4[nH]ncc4c3)C2)c1 (centres unmarked) [Compound 1.048, N-(1-(3-(methylsulfonyl)benzyl)piperidin-3-yl)-1H-indazol-5-amine]
604 nM | Cc1n[nH]c2ccc(NC3CCCN(Cc4ccccc4)C3)cc12 (centres unmarked) [Compound 1.049, N-(1-benzylpiperidin-3-yl)-3-methyl-1H-indazol-5-amine]
62.6 nM | CS(=O)(=O)Nc1cccc(CN2CCCC(Nc3ccc4[nH]ncc4c3)C2)c1 (centres unmarked) [Compound 1.051, N-(3-((3-(1H-indazol-5-ylamino)piperidin-1-yl)methyl)phenyl)methanesulfonamide]
15.3 nM | c1cc2cc(CN3CCCC(Nc4ccc5[nH]ncc5c4)C3)ccc2o1 (centres unmarked) [Compound 1.052, N-(1-(benzofuran-5-ylmethyl)piperidin-3-yl)-1H-indazol-5-amine]
